Laboratory results published in patent publication US11999727B2 (Tango Therapeutics, Inc., priority 2020, dated 2024).
Like-named read-outs stand apart in the source and are kept apart here.

Legend:
Format in all cases: cell-based
[1] = tested on: HAP1 MTAP-intact cell line; assay: SDMA in-cell western assay, HAP1 MTAP-intact; conditions: Homo sapiens
Source text: (§1) Table 1 also indicates IC50 values in an MTAP-isogenic cell line pair for exemplary compounds in an SDMA in-cell western assay (columns 7-8). HAP1 MTAP-intact is a cell line in which endogenous levels of MTAP are expressed, and HAP1 MTAP-deleted is an MTAP-null cell line.

[2] = tested on: HAP1 MTAP-deleted cell line; assay: SDMA in-cell western assay, HAP1 MTAP-deleted; conditions: for IC50: Homo sapiens
Source text: as §1

[3] = tested on: HAP1 MTAP-deleted cell line; assay: Viability assay, MTAP-deleted cell line; conditions: Homo sapiens
Source text: Table 1 additionally indicates IC50 values in a viability assay for the MTAP-deleted cell line (column 10), indicating the effect of treatment with compound on cell survival.

[4] = HAP1, read-out: MTAP HAP1 intact IC50
[5] = HAP1, read-out: HAP1 MTAP deleted IC50
[6] = HAP1, read-out: HAP1 MTAP deleted viability
[7] = HAP1, SDMA in-cell western, HAP1 MTAP-intact, read-out: MTAP HAP1 intact IC50

Row | Structure (SMILES) | IC50 [1, 4] [nM] | IC50 [2, 5] [nM] | IC50 [3, 6] [nM] | further results
1 | Cc1cc(NC(=O)C(=O)N2C[C@H](C)CC[C@@H]2c2ccccc2)cnc1N (single isomer, unassigned) [Compound 37] | > 1000 | 100 to 1000 | 1000 to 10000 | 
2 | Cc1cncc(NC(=O)C(=O)N2[C@H](c3ccccc3)CC[C@@H](C)[C@@H]2C)c1 (single isomer, unassigned) [Compound 39] | > 1000 | > 1000 | > 10000 | 
3 | C[C@H]1CC[C@@H](c2ccccc2)N(C(=O)C(=O)Nc2cncc(C(N)=O)c2)C1 (single isomer, unassigned) [Compound 82] | > 1000 | 100 to 1000 | > 10000 | 
4 | C[C@H]1CC[C@H](c2ccccc2)N(C(=O)C(=O)Nc2cncc(C(N)=O)c2)C1 (single isomer, unassigned) [Compound 88] | > 1000 | < 100 | 1000 to 10000 | 
5 | Cc1cc(NC(=O)C(=O)N2CCCC[C@H]2c2ccccc2)cnc1C (single isomer, unassigned) [Compound 188] | > 1000 | > 1000 | > 10000 | 
6 | Cc1cc(NC(=O)C(=O)N2CCCC[C@@H]2c2ccccc2)cnc1C (single isomer, unassigned) [Compound 189] | > 1000 | > 1000 | > 10000 | 
7 | Cc1cc(NC(=O)C(=O)N2C[C@H](C)CC[C@H]2c2ccc(F)cc2)cnc1N (single isomer, unassigned) [Compound 233] | > 1000 | > 1000 | > 10000 | 
8 | Cc1cc(NC(=O)C(=O)N2C[C@@H](C)CC[C@@H]2c2ccc(F)cc2)cnc1N (single isomer, unassigned) [Compound 242] | 100 to 1000 | < 100 | < 1000 | 
9 | C[C@H]1CC[C@H](c2ccc(O)cc2)N(C(=O)C(=O)Nc2cncc(C(N)=O)c2)C1 (single isomer, unassigned) [Compound 287] | 100 to 1000 | < 100 | < 1000 | 
10 | C[C@@H]1CC[C@@H](c2ccc(O)cc2)N(C(=O)C(=O)Nc2cncc(C(N)=O)c2)C1 (single isomer, unassigned) [Compound 297] | > 1000 | > 1000 | > 10000 | 
11 | C[C@H]1CC[C@H](c2ccc3c(c2)CC(=O)N3)N(C(=O)C(=O)Nc2cncc(C(N)=O)c2)C1 (single isomer, unassigned) [Compound 319] | 100 to 1000 | < 100 | 1000 to 10000 | 
12 | C[C@@H]1CC[C@@H](c2ccc3[nH]cnc3c2)N(C(=O)C(=O)Nc2cncc(C(N)=O)c2)C1 (single isomer, unassigned) [Compound 344] | > 1000 | 100 to 1000 | 1000 to 10000 | 
13 | C[C@@H]1CC[C@@H](c2ccc(C(F)F)cc2)N(C(=O)C(=O)Nc2cncc(C(N)=O)c2)C1 (single isomer, unassigned) [Compound 358] | > 1000 | > 1000 | > 10000 | 
14 | C[C@H]1CC[C@H](c2ccc(C(F)F)cc2)N(C(=O)C(=O)Nc2cncc(C(N)=O)c2)C1 (single isomer, unassigned) [Compound 359] | > 1000 | < 100 | 1000 to 10000 | 
15 | C[C@H]1CC[C@H](c2ccc3[nH]ncc3c2)N(C(=O)C(=O)Nc2cncc(C(N)=O)c2)C1 (single isomer, unassigned) [Compound 360] | > 1000 | > 1000 | > 10000 | 
16 | C[C@@H]1CC[C@@H](c2ccc3[nH]ncc3c2)N(C(=O)C(=O)Nc2cncc(C(N)=O)c2)C1 (single isomer, unassigned) [Compound 361] | 100 to 1000 | < 100 | < 1000 | 
17 | Cc1cc(NC(=O)C(=O)N2C[C@H](C)CC[C@H]2c2ccc3[nH]ncc3c2)cnc1N (single isomer, unassigned) [Compound 363] | < 100 | < 100 | < 1000 | 
18 | Cc1cc(NC(=O)C(=O)N2C[C@@H](C)CC[C@@H]2c2ccc3[nH]ncc3c2)cnc1N (single isomer, unassigned) [Compound 364] | > 1000 | > 1000 | > 10000 | 
19 | C[C@@H]1CC[C@@H](c2ccc3[nH]ccc3c2)N(C(=O)C(=O)Nc2cncc(C(N)=O)c2)C1 (single isomer, unassigned) [Compound 372] | > 1000 | > 1000 | > 10000 | 
20 | Cc1cc(NC(=O)C(=O)N2C[C@H](C)CC[C@H]2c2ccc3[nH]ccc3c2)cnc1N (single isomer, unassigned) [Compound 385] | 100 to 1000 | < 100 | < 1000 | 

Row | Structure (SMILES) | IC50 [1, 4] [nM] | IC50 [2, 5] [nM] | IC50 [3, 6] [nM] | further results
21 | Cc1cc(NC(=O)C(=O)N2C[C@@H](C)CC[C@@H]2c2ccc3[nH]ccc3c2)cnc1N (single isomer, unassigned) [Compound 388] | > 1000 | > 1000 | > 10000 | 
22 | Cc1cc(NC(=O)C(=O)N2C[C@@H](C)CC[C@H]2c2ccc3[nH]ncc3c2)cnc1N (single isomer, unassigned) [Compound 392] | > 1000 | < 100 | 1000 to 10000 | 
23 | Cc1cc(NC(=O)C(=O)N2C[C@@H](C)CC[C@@H]2c2ccc(O)cc2)cnc1N (single isomer, unassigned) [Compound 396] | > 1000 | > 1000 | > 10000 | 
24 | Cc1cc(NC(=O)C(=O)N2C[C@H](C)CC[C@H]2c2ccc(O)cc2)cnc1N (single isomer, unassigned) [Compound 397] | 100 to 1000 | < 100 | < 1000 | 
25 | Cc1cc(NC(=O)C(=O)N2C[C@@H](C)CC[C@@H]2c2ccc3[nH]cnc3c2)cnc1N (single isomer, unassigned) [Compound 408] | 100 to 1000 | < 100 | < 1000 | 
26 | Cc1cc(NC(=O)C(=O)N2C[C@H](C)CC[C@H]2c2ccc(C(F)F)cc2)cnc1N (single isomer, unassigned) [Compound 419] | 100 to 1000 | < 100 | 1000 to 10000 | 
27 | C[C@H]1CC[C@H](c2ccc3c(c2)CCC(=O)N3)N(C(=O)C(=O)Nc2cncc(C(N)=O)c2)C1 (single isomer, unassigned) [Compound 479] | > 1000 | < 100 | 1000 to 10000 | 
28 | C[C@@H]1CC[C@@H](c2ccc3c(c2)CCC(=O)N3)N(C(=O)C(=O)Nc2cncc(C(N)=O)c2)C1 (single isomer, unassigned) [Compound 480] | > 1000 | > 1000 | > 10000 | 
29 | C[C@H]1CC[C@H](c2ccc3[nH]ccc3c2)N(C(=O)C(=O)Nc2cncc(C(N)=O)c2)C1 (single isomer, unassigned) [Compound 481] | 100 to 1000 | < 100 | < 1000 | 
30 | Cc1cc(NC(=O)C(=O)N2C[C@@H](C)CC[C@@H]2c2ccc3c(c2)CCC(=O)N3)cnc1N (single isomer, unassigned) [Compound 502] | 100 to 1000 | < 100 | < 1000 | 
31 | Cc1cc(NC(=O)C(=O)N2C[C@H](C)CC[C@H]2c2ccc3c(c2)CCC(=O)N3)cnc1N (single isomer, unassigned) [Compound 505] | 100 to 1000 | < 100 | < 1000 | 
32 | C[C@H]1CC[C@H](c2ccc3scnc3c2)N(C(=O)C(=O)Nc2cncc(C(N)=O)c2)C1 (single isomer, unassigned) [Compound 587] | 100 to 1000 | < 100 | < 1000 | 
33 | C[C@@H]1CC[C@@H](c2ccc3scnc3c2)N(C(=O)C(=O)Nc2cncc(C(N)=O)c2)C1 (single isomer, unassigned) [Compound 588] | > 1000 | > 1000 | > 10000 | 
34 | Cc1cc([C@@H]2CC[C@@H](C)CN2C(=O)C(=O)Nc2cncc(C(N)=O)c2)cc2cn[nH]c12 (single isomer, unassigned) [Compound 611] |  |  |  | IC50 [1, 7]: > 1000 nM; IC50 ([2]; HAP1, SDMA in-cell western, HAP1 MTAP-deleted, read-out: HAP 1 MTAP deleted IC50): > 1000 nM; MTAP intact/deleted ratio ([2]; IC50 ratio HAP1 MTAP-intact / HAP1 MTAP-deleted, SDMA in-cell western): C (an IC50 ratio of less than 3 fold); IC50 ([3]; HAP1, viability IC50, MTAP-deleted cell line, read-out: HAP1 MTAP deleted viability): > 10000 nM
35 | Cc1cc(NC(=O)C(=O)N2C[C@@H](C)CC[C@@H]2c2ccc3c(c2)CC(=O)N3)cnc1N (single isomer, unassigned) [Compound 678] | < 100 | < 100 | < 1000 | 
36 | COc1ncc(NC(=O)C(=O)N2C[C@H](C)CC[C@H]2c2ccc3sc(C)nc3c2)cc1C(N)=O (single isomer, unassigned) [Compound 808] |  |  |  | IC50 [1, 7]: > 1000 nM; IC50 ([2]; HAP1, SDMA in-cell western, HAP1 MTAP-deleted, read-out: HAP1 MTAP deleted IC50): > 1000 nM; IC50 ([3]; HAP1, viability assay, HAP1 MTAP-deleted, read-out: HAP1 MTAP deleted viability): > 10000 nM
37 | C[C@H]1CC[C@H](c2ccc3cnccc3c2)N(C(=O)C(=O)Nc2cncc(C(N)=O)c2)C1 (single isomer, unassigned) [Compound 885] | > 1000 | > 1000 | > 10000 | 
38 | C[C@@H]1CC[C@@H](c2ccc3cnccc3c2)N(C(=O)C(=O)Nc2cncc(C(N)=O)c2)C1 (single isomer, unassigned) [Compound 892] | > 1000 | < 100 | < 1000 | 
39 | Cc1cc(NC(=O)C(=O)N2C[C@H](C)CC[C@H]2c2ccc3cnccc3c2)cnc1N (single isomer, unassigned) [Compound 1000] | 100 to 1000 | < 100 | < 1000 | 
40 | Cc1cc(NC(=O)C(=O)N2C[C@@H](C)CC[C@@H]2c2ccc3cnccc3c2)cnc1N (single isomer, unassigned) [Compound 1002] | > 1000 | 100 to 1000 | > 10000 | 
